According to US20060025449A1, “Use of N-substituted imino sugars for appetite suppression” (priority 2004, published 2006):

Columns and labels:
C57B1/6 mice [1] = assay type: in vivo, mouse
Description: Growth rates of control and NB-DNJ-treated mice were analysed statistically by univariate analysis of variance (ANOVA) using SPSS software to compare slopes of growth from 54 to 174 days of age.
The effect of NB-DNJ on lean body mass growth was also assessed by measuring tibia lengths in a group of 20 control mice at one year old, 5 mice at 2 years old and two mice 19.5 months old after 18 months on 2400 mg/kg/day. Tibias were dissected from both hind-limbs then boiled in distilled water for 20 min to clean the bone of remaining connective tissue and muscle. Tibia length was then measured using calipers.
It can also be seen (FIG. 4) that the control mice lost weight over the first two weeks of treatment and then started to grow again, and continued to gain weight for the remainder of the study. […] Growth in both groups of mice as measured by the gradient of the line is similar and the data were analysed by univariate analysis of variance (ANOVA) to compare the slopes of growth statistically.
To establish further, whether NB-DNJ has an effect on lean growth of mice tibia lengths were measured in a large (n=20) group of control mice at one year of age, a smaller group (n=5) at two years of age and a comparison was made with two mice treated with NB-DNJ for 18 months.

C57B1/6 mice [2] = assay: Effect of imino sugars admixed with diet on growth of normal control mice; assay type: in vivo, mouse
Description: Control C57B1/6 and C57BL/6O1aHsd-Lep ob mice were obtained from Harlan, UK at five weeks of age. The mice were housed under standard non-sterile conditions and fed a diet of mouse chow pelleted or expanded ground RM1 diet (SDS Ltd, Witham, Essex) with water available ad libitum. For dietary treatment of the mice with NB-DNJ or NB-DGJ, the diet and compound were admixed thoroughly as dry solids, stored at room temperature and used within 7 days. Unless indicated otherwise, mice were treated with a dose of 2400 mg/kg body weight per day, assuming an intake of around 5 g diet/day. Mice were maintained on diet with or without compound for up to six months of age and were weighed at regular intervals during the course of the experiment (see figure legends for group sizes and further experimental details). To study the effect of compound on obese mice, three groups (n=5) of ob/ob mice were monitored from five weeks of age. One group acted as control and were fed ground RM1 diet. At 6 weeks of age, the second group was started on NB-DNJ in the diet, whilst the third group started drug treatment at 12 weeks of age. All mice were then monitored for up to six months of age. […] In the first week of treatment, mice with NB-DNJ in their diet lost about 10% of their total body mass. Over the course of the following weeks, their weight stabilises. By 5 weeks of treatment they weighed 25% less than the controls. They then started to gain weight. However, after 10 weeks they remained 20% less in mass when compared with the age and sex-matched control group.

C57B1/6 mice [3] = assay: Skin histology/thickness and gross dissection for white adipose tissue; assay type: in vivo, mouse
Description: Six week-old control mice on a normal diet or treated with 2400 mg/kg/day NB-DNJ for four weeks (n=3 in each group), were sacrificed and hair removed by shaving followed by application of a depilatory cream. A small section of skin was excised from the same area of the back of each mouse and processed for histology. After excision, the skin was put into mini histology trays containing OCT compound (BDH Laboratory Supplies, UK) and frozen for cryo-sectioning. Cryosections (10 μm thickness) of skin were then fixed in ice-cold acetone for 30 sec and rinsed under running tap water for 1 minute before dipping briefly in Mayer's haemotoxylin (Sigma, UK). The sections were dehydrated through a rising ethanol concentration series of 70%, 80%, 95%, 100% before clearing with Histo-Clear Histological Clearing agent (National Diagnostics, […], Hull, UK) twice for 5 min. Finally, the sections of skin were mounted with cover slips and DePeX mounting medium (BDH Laboratory Supplies, UK) on glass microscope slides. Another portion of skin (5 mm^2) was taken from each mouse, placed on a microscope slide and skin thickness measured using a micrometer gauge. […] Also, after complete depilation, this group of mice had transparent skin making the visceral organs, ventrally, and the kidneys and spinal vertebrae, dorsally, clearly visible in contrast to the opaque, non-transparent skin of controls. […]

C57B1/6 mice [4] = conditions: Platt et al.; cited from earlier work
control lean mice = assay: ICV mini-pump implants, long-term intracerebro-ventricular delivery; assay type: in vivo, mouse
Description: FIG. 11. Control lean mice (n=5 in each group) had icv minipumps (50 mM imino sugar) implanted. Body weight was the monitored at regular intervals over three weeks. See example 7 for further experimental details. The effect of long-term intracerebro-ventricular delivery of imino sugars was determined by the implantation of Alzet mini-osmotic pumps (model 2004, DURECT Corporation, CA, USA) together with the brain infusion kit II which features a high stability low profile cannula. The mini-pumps were loaded with 0.24 ml imino sugar or saline vehicle. The indwelling 28 gauge stainless steel cannula was cut to a length of 2.25 mm. Mice were anaesthetised as for the ICV injections and underwent similar surgical procedures throughout. After drilling a small hole in the cranium at the midline, 2 mm posterior to Bregma, the mini-pump was positioned subcutaneously in the animal's flank and the cannula was implanted. This position and depth ensured delivery to the third cerebral ventricle. The implant was secured to the cranium using VetBond acrylic suture fluid, which was also used to close the surgical wound. The whole procedure lasted less than 9 minutes and mice were fully conscious and recovered within three minutes. For concentration of imino sugar in mini-pumps see figure legends.

male C57B1/6 mice = assay: Epididymal fat pad weight, dose-response; assay type: in vivo, mouse
Description: A dose-response relationship for the effect of increasing concentrations of NB-DNJ on adipose tissue in male C57B1/6 mice was determined by treating with doses ranging from 15 to 2400 mg/kg/day for 5 weeks. Mice were sacrificed and their epididymal fat pads excised and weighed. The results are expressed as a ratio of epididymal pad fat mass to total body weight.

[5] = ICV mini-pump 500 mM, first 24 hours

## CCCCN1C[C@H](O)[C@@H](O)[C@H](O)[C@H]1CO [NB-DNJ, N-butyldeoxynojirimycin]
C57B1/6 mice [1]; 2400 mg/kg/d in diet
  weighing less than control counterparts after original weight loss: 4 g
C57B1/6 mice [1]; admixed with diet, lean mice
  lean mass: did not have any reduction in lean mass
C57B1/6 mice [1]; two mice treated for 18 months, 2400 mg/kg/day
  tibia lengths: within the normal range
C57B1/6 mice [2]; 2400 mg/kg/day in diet from 6 weeks of age, first week of treatment
  loss of total body mass: about 10%
C57B1/6 mice [2]; 2400 mg/kg/day in diet, after 10 weeks
  less in mass compared with age and sex-matched control group: 20%
C57B1/6 mice [2]; 2400 mg/kg/day in diet, by 5 weeks of treatment
  weighed less than the controls: 25%
C57B1/6 mice [3]; 2400 mg/kg/day
  white adipose tissue on gross dissection: significant depletion of white adipose tissue
C57B1/6 mice [3]; 2400 mg/kg/day for four weeks, six week-old mice
  reduction in mouse skin thickness: 40%
C57B1/6 mice [4]
  dose at which a well-defined effect on total body weight has been seen: ≥ 600 mg/kg/day
Control lean mice; ICV mini-pump 50 mM, NB-DGJ as control
  reduction in food intake compared to the controls: 6%
Control lean mice; ICV mini-pump 50 mM, after 3 weeks
  reduction of body weight: 5%
Control lean mice; [5]
  effect on dietary intake: ate even less
  effect on weight change: lost a little more weight
Male C57B1/6 mice; 5 weeks treatment, doses 15 to 2400 mg/kg/day
  lowest dose at which a reduction in fat pad weight is apparent: 15 mg/kg/day
Male C57B1/6 mice; five weeks treatment, 15 to 2400 mg/kg/day
  epididymal fat pad mass to total body weight: clear dose-related response
